The source made the active and inactive calls. No cut-off for these calls is given here.
What was measured:
DU-145 [1] = assay: Antiproliferative activity against human DU-145 cells assessed as cell growth inhibition incubated for 48 hrs by MTT assay; type: functional
PC-3 [2] = assay: Antiproliferative activity against human PC-3 cells assessed as cell growth inhibition incubated for 48 hrs by MTT assay; type: functional
[3] = Toxicity in athymic nude mouse xenografted with human DU-145 cells assessed as change in body weight at 20 mg/kg, ip administered every 4 days for 5 doses and measured upto 60 days; type: organism-based; settings: in vivo, 1440 h, time < 60 day
DU-145 [4] = assay: Antitumor activity against human DU-145 cells xenografted in athymic nude mouse assessed as tumor growth inhibition at 20 mg/kg, ip administered every 4 days for 5 doses and measured upto 60 days by caliper method relative to control; type: functional; settings: DU-145, 1440 h, time <= 60 day, read-out: TGI
[5] = Toxicity in athymic nude mouse xenografted with human DU-145 cells assessed as change in body weight at 50 mg/kg, po qd measured upto 60 days; type: organism-based; settings: in vivo, 1440 h, time < 60 day
[6] = Toxicity in athymic nude mouse xenografted with human DU-145 cells assessed as change in body weight at 100 to 200 mg/kg, po administered every 2 days and measured upto 60 days; type: organism-based; settings: in vivo, 1440 h, dose 100-200 mg/kg, time < 60 day
[7] = Toxicity in athymic nude mouse xenografted with human PC-3 cells assessed as change in body weight at 50 to 100 mg/kg, po qd measured upto 25 days; type: organism-based; settings: in vivo, 600 h, dose 50-100 mg/kg, time < 25 day
PC-3 [8] = assay: Antitumor activity against human PC-3 cells xenografted in athymic nude mouse assessed as tumor growth inhibition at 20 mg/kg, ip administered every 4 days for 4 doses and measured upto 25 days by caliper method relative to control; type: functional; settings: PC-3, 600 h, time <= 25 day, read-out: TGI
[9] = Toxicity in athymic nude mouse xenografted with human PC-3 cells assessed as change in body weight at 20 mg/kg, ip administered every 4 days for 4 doses and measured upto 25 days; type: organism-based; settings: in vivo, 600 h, time < 25 day
PC-3 [10] = assay: Antiproliferative activity against human PC-3 cells assessed as cell growth inhibition at upto 10 uM; type: functional, cell-based; settings: time 48.0 hrs

Q: For `C#CCN(C)Cc1cccc(NS(=O)(=O)c2cccc(/C=C/C(=O)NO)c2)c1`, which GI50 (DU-145 [1]) is on record?
A: 0.21 µM

Q: And the GI50 (PC-3 [2])?
A: 1.23 µM

Q: Which results are given for `C#CCN(C)Cc1cccc(NC(=O)CCCCCCCC(=O)NO)c1`?
A: GI50 (DU-145 [1]): 3.78 µM; GI50 (PC-3 [2]): 4.07 µM

Q: For `C#CCN(C)Cc1cccc(NC(=O)CCCCCCCCC(=O)NO)c1`, which GI50 (DU-145 [1]) is on record?
A: 2.94 µM

Q: And the GI50 (PC-3 [2])?
A: 1.79 µM

Q: Which GI50 (DU-145 [1]) does the source give for `C#CCN(C)Cc1ccc(NC(=O)CCCCCCC(=O)NO)cc1` here?
A: 1.51 µM

Q: And the GI50 (PC-3 [2])?
A: 2.28 µM

Q: For `C[C@]12CC[C@H](O)CC1=CC[C@@H]1[C@@H]2CC[C@]2(C)C(c3cccnc3)=CC[C@@H]12` [ABIRATERONE], which GI50 (DU-145 [1]) is on record?
A: > 10 µM

Q: And the GI50 (PC-3 [2])?
A: > 10 µM

Q: With `CNC(=O)c1ccc(N2C(=S)N(c3ccc(C#N)c(C(F)(F)F)c3)C(=O)C2(C)C)cc1F` [ENZALUTAMIDE] as the compound, how does the GI50 (DU-145 [1]) read?
A: > 10 µM

Q: What about the GI50 (PC-3 [2]) of the same compound?
A: > 10 µM

Q: What does the source list for `C#CCN(C)Cc1ccc(NC(=O)CCCCCCCC(=O)NO)cc1`?
A: GI50 (DU-145 [1]): 3.4 µM; GI50 (PC-3 [2]): 7.16 µM

Q: Which Activity [3] does the source give for `CC(=O)O[C@H]1C(=O)[C@@]2(C)[C@H]([C@H](OC(=O)c3ccccc3)[C@]3(O)C[C@H](OC(=O)[C@H](O)[C@@H](NC(=O)c4ccccc4)c4ccccc4)C(C)=C1C3(C)C)[C@]1(OC(C)=O)CO[C@@H]1C[C@@H]2O` [PACLITAXEL] here?
A: Non-Toxic

Q: And the inhibition in vivo at 20 mg/kg (DU-145 [4])?
A: 47%

Q: And the Activity [5]?
A: Non-Toxic

Q: And the Activity [6]?
A: Non-Toxic

Q: What about the Activity [7] of the same compound?
A: Non-Toxic

Q: And the inhibition in vivo at 20 mg/kg (PC-3 [8])?
A: 47.8%

Q: What about the Activity [9] of the same compound?
A: Non-Toxic

Q: With `C#CCN(C)Cc1cccc(NCc2ccc(C(=O)NO)cc2)c1` as the compound, how does the GI50 (DU-145 [1]) read?
A: > 10 µM

Q: And the GI50 (PC-3 [2])?
A: > 10 µM

Q: Which GI50 (DU-145 [1]) does the source give for `C#CCN(C)Cc1ccc(NC(=O)CCCCC(=O)NO)cc1` here?
A: > 10 µM

Q: What about the GI50 (PC-3 [2]) of the same compound?
A: > 10 µM

Q: Which GI50 (DU-145 [1]) does the source give for `C#CCN(C)Cc1ccc(NCc2ccc(C(=O)NO)cc2)cc1` here?
A: > 10 µM

Q: And the GI50 (PC-3 [2])?
A: > 10 µM

Q: With `Nc1ccccc1NC(=O)c1ccc(CCCC(=O)Nc2ccc([C@H]3C[C@@H]3N)cc2)cc1` as the compound, how does the Activity (PC-3 [10]) read?
A: Active

Q: Which results are given for `C#CCN(C)Cc1ccc(NC(=O)CCCCCC(=O)NO)cc1`?
A: GI50 (DU-145 [1]): > 10 µM; GI50 (PC-3 [2]): > 10 µM

Q: For `C#CCN(C)Cc1ccc(NC(=O)CCC(=O)NO)cc1`, which GI50 (DU-145 [1]) is on record?
A: > 10 µM

Q: What about the GI50 (PC-3 [2]) of the same compound?
A: > 10 µM

Q: With `C#CCN(C)Cc1cccc(NC(=O)CCCCCC(=O)NO)c1` as the compound, how does the GI50 (DU-145 [1]) read?
A: 4.29 µM

Q: What about the GI50 (PC-3 [2]) of the same compound?
A: 4.63 µM

Q: Which results are given for `C#CCN(C)Cc1ccc(NC(=O)CCCCCCCCC(=O)NO)cc1`?
A: GI50 (DU-145 [1]): 2.74 µM; GI50 (PC-3 [2]): 4.26 µM

Q: For `C#CCN(C)Cc1ccccc1` [PARGYLINE], which GI50 (DU-145 [1]) is on record?
A: 219 µM

Q: And the GI50 (PC-3 [2])?
A: 197 µM

Q: Which GI50 (DU-145 [1]) does the source give for `C#CCN(C)Cc1cccc(NC(=O)CCCCC(=O)NO)c1` here?
A: 9.75 µM

Q: What about the GI50 (PC-3 [2]) of the same compound?
A: 5.15 µM

Q: With `C#CCN(C)Cc1ccc(NC(=O)CCCC(=O)NO)cc1` as the compound, how does the GI50 (DU-145 [1]) read?
A: > 10 µM

Q: What about the GI50 (PC-3 [2]) of the same compound?
A: > 10 µM

Q: For `C#CCN(C)Cc1cccc(NC(=O)CCCC(=O)NO)c1`, which GI50 (DU-145 [1]) is on record?
A: > 10 µM

Q: And the GI50 (PC-3 [2])?
A: > 10 µM

Q: With `Cn1cc(-c2ccc(S(=O)(=O)n3ccc(/C=C/C(=O)Nc4ccccc4N)c3)cc2)cn1` as the compound, how does the Activity (PC-3 [10]) read?
A: Active

Q: For `C#CCN(C)Cc1ccc(NS(=O)(=O)c2cccc(/C=C/C(=O)NO)c2)cc1`, which GI50 (DU-145 [1]) is on record?
A: 0.21 µM

Q: And the GI50 (PC-3 [2])?
A: 0.367 µM

Q: With `C#CCN(C)Cc1ccc(NCc2ccc(/C=C/C(=O)NO)cc2)cc1` as the compound, how does the GI50 (DU-145 [1]) read?
A: 0.56 µM

Q: And the GI50 (PC-3 [2])?
A: 0.75 µM

Q: With `C#CCN(C)Cc1ccc(NS(=O)(=O)c2ccc(/C=C/C(=O)NO)cc2)cc1` as the compound, how does the GI50 (DU-145 [1]) read?
A: 0.96 µM

Q: And the GI50 (PC-3 [2])?
A: 0.71 µM

Q: Which results are given for `C#CCN(C)Cc1cccc(NS(=O)(=O)c2ccc(/C=C/C(=O)NO)cc2)c1`?
A: GI50 (DU-145 [1]): 2.35 µM; GI50 (PC-3 [2]): 2.23 µM

Q: Which GI50 (DU-145 [1]) does the source give for `C#CCN(C)Cc1cccc(NCc2ccc(/C=C/C(=O)NO)cc2)c1` here?
A: 0.54 µM

Q: What about the GI50 (PC-3 [2]) of the same compound?
A: 0.85 µM

Q: Which GI50 (DU-145 [1]) does the source give for `C#CCN(C)Cc1cccc(NC(=O)CCC(=O)NO)c1` here?
A: > 10 µM

Q: And the GI50 (PC-3 [2])?
A: > 10 µM

From ChEMBL document CHEMBL5096208, “Installation of Pargyline, a LSD1 Inhibitor, in the HDAC Inhibitory Template Culminated in the Identification of a Tractable Antiprostate Cancer Agent” (J Med Chem, 2021)
